Values after ≈ are worked out from the molar mass of the structure shown.
Columns and labels:
Type in all cases: cell-based
[1] = test system: Staphylococcus aureus FDA 209PJc-1; assay: Antibacterial activity, agar-dilution MIC, organism No. 1; conditions: Staphylococcus aureus, FDA209PJC1; Organism No. 1, bouillon-agar; read-out: Minimum Inhibitory Concentration
Text: (§1) Agar-dilution method was used for determination of the antibacterial activity and antifungal activity while using bouillon-agar culture medium, and the minimum inhibitory concentration of the specimen was expressed by μg/ml of the culture medium.

[2] = test system: Staphylococcus aureus Terajima; assay: Antibacterial activity, agar-dilution MIC, organism No. 2; conditions: Staphylococcus aureus; Organism No. 2, bouillon-agar; read-out: Minimum Inhibitory Concentration
Text: as §1

[3] = test system: Staphylococcus aureus MS 353; assay: Antibacterial activity, agar-dilution MIC, organism No. 3; conditions: Staphylococcus aureus, MS353; Organism No. 3, bouillon-agar; read-out: Minimum Inhibitory Concentration
Text: as §1

[4] = test system: Streptococcus pyogenes Cook; assay: Antibacterial activity, agar-dilution MIC, organism No. 4; conditions: Streptococcus pyogenes; Organism No. 4, bouillon-agar; read-out: Minimum Inhibitory Concentration
Text: as §1

[5] = test system: Escherichia coli NIHJ-JC-2; assay: Antibacterial activity, agar-dilution MIC, organism No. 5; conditions: Escherichia coli, NIHJJC2; Organism No. 5, bouillon-agar; read-out: Minimum Inhibitory Concentration
Text: as §1

[6] = test system: Escherichia coli K12 C600 IAM 1264; assay: Antibacterial activity, agar-dilution MIC, organism No. 6; conditions: Escherichia coli, IAM1264; Organism No. 6, bouillon-agar; read-out: Minimum Inhibitory Concentration
Text: as §1

[7] = test system: Klebsiella pneumoniae PCI-602; assay: Antibacterial activity, agar-dilution MIC, organism No. 7; conditions: Klebsiella pneumoniae, PCI602; Organism No. 7, bouillon-agar; read-out: Minimum Inhibitory Concentration
Text: as §1

[8] = test system: Salmonella typhimurium IID 971; assay: Antibacterial activity, agar-dilution MIC, organism No. 8; conditions: Salmonella enterica; Organism No. 8, bouillon-agar; read-out: Minimum Inhibitory Concentration
Text: as §1

Salmonella typhi 901 = assay: Antibacterial activity, agar-dilution MIC, organism No. 9; conditions: Salmonella enterica, TYPHI, read-out: Minimum Inhibitory Concentration
Text: as §1

[9] = test system: Salmonella paratyphi-A 1015; assay: Antibacterial activity, agar-dilution MIC, organism No. 10; conditions: Salmonella enterica, PARATYPHI, read-out: Minimum Inhibitory Concentration
Text: as §1

[10] = test system: Salmonella shottmuelleri 8006; assay: Antibacterial activity, agar-dilution MIC, organism No. 11; conditions: Salmonella, 8006; Organism No. 11, bouillon-agar; read-out: Minimum Inhibitory Concentration
Text: as §1

[11] = test system: Salmonella enteritidis G 14; assay: Antibacterial activity, agar-dilution MIC, organism No. 12; conditions: Salmonella enterica, ENTERITIDIS; Organism No. 12, bouillon-agar; read-out: Minimum Inhibitory Concentration
Text: as §1

[12] = test system: Bacillus subtilis ATCC 6633; assay: Antibacterial activity, agar-dilution MIC, organism No. 14; conditions: Bacillus subtilis, ATCC6633; Organism No. 14, bouillon-agar; read-out: Minimum Inhibitory Concentration
Text: as §1

[13] = test system: Pseudomonas aeruginosa IFO 3445; assay: Antibacterial activity, agar-dilution MIC, organism No. 15; conditions: Pseudomonas aeruginosa, IFO3445; Organism No. 15, bouillon-agar; read-out: Minimum Inhibitory Concentration
Text: as §1

[14] = test system: Pseudomonas aeruginosa NCTC 10490; assay: Antibacterial activity, agar-dilution MIC, organism No. 16; conditions: Pseudomonas aeruginosa, NCTC10490; Organism No. 16, bouillon-agar; read-out: Minimum Inhibitory Concentration
Text: as §1

[15] = test system: Pseudomonas aeruginosa PAO 1; assay: Antibacterial activity, agar-dilution MIC, organism No. 17; conditions: Pseudomonas aeruginosa, PAO1; Organism No. 17, bouillon-agar; read-out: Minimum Inhibitory Concentration
Text: as §1

[16] = test system: Proteus morganii IFO 3848; assay: Antibacterial activity, agar-dilution MIC, organism No. 18; conditions: Morganella morganii, IFO3848; Organism No. 18, bouillon-agar; read-out: Minimum Inhibitory Concentration
Text: as §1

[17] = test system: Proteus mirabilis IFO 3849; assay: Antibacterial activity, agar-dilution MIC, organism No. 19; conditions: Proteus mirabilis, IFO3849; Organism No. 19, bouillon-agar; read-out: Minimum Inhibitory Concentration
Text: as §1

Proteus vulgaris OX-19 = assay: Antibacterial activity, agar-dilution MIC, organism No. 20; conditions: Proteus vulgaris, OX19; Organism No. 20, bouillon-agar; read-out: Minimum Inhibitory Concentration
Text: as §1

Proteus vulgaris HX-19 = assay: Antibacterial activity, agar-dilution MIC, organism No. 21; conditions: Proteus vulgaris, HX19; Organism No. 21, bouillon-agar; read-out: Minimum Inhibitory Concentration
Text: as §1

[18] = test system: Proteus rettgeri IFO 3850; assay: Antibacterial activity, agar-dilution MIC, organism No. 22; conditions: Providencia rettgeri, IFO3850; Organism No. 22, bouillon-agar; read-out: Minimum Inhibitory Concentration
Text: as §1

Enterobacter cloacae 963 = assay: Antibacterial activity, agar-dilution MIC, organism No. 24; conditions: Enterobacter cloacae, 963; Organism No. 24, bouillon-agar; read-out: Minimum Inhibitory Concentration
Text: as §1

[19] = test system: Micrococcus luteus ATCC 9341; assay: Antibacterial activity, agar-dilution MIC, organism No. 25; conditions: Micrococcus luteus, ATCC9341; Organism No. 25, bouillon-agar; read-out: Minimum Inhibitory Concentration
Text: as §1

[20] = test system: Streptococcus pyogenes IFO 3340; assay: Antibacterial activity, agar-dilution MIC, organism No. 26; conditions: Streptococcus pyogenes, IFO3340; Organism No. 26, bouillon-agar; read-out: Minimum Inhibitory Concentration
Text: as §1

[21] = test system: Streptococcus faecium IFO 3826; assay: Antibacterial activity, agar-dilution MIC, organism No. 27; conditions: Enterococcus faecium, IFO3826; Organism No. 27, bouillon-agar; read-out: Minimum Inhibitory Concentration
Text: as §1

[22] = test system: Mycoplasma pneumoniae IID817; assay: Antimycoplasmal activity, MIC by phenol red colour change, organism No. 28; conditions: Mycoplasma, IID817; Organism No. 28, PPLO broth + 1% glucose, 37° C.; read-out: Minimum Inhibitory Concentration (MIC)
Method: Mycoplasma pneumoniae IID817 was used as the test microorganism in a culture medium prepared by adding 1% of glucose to "PPLO broth (manufactured by Difco Co.) liquid culture medium" at 37° C. with phenol red as an indicator, thereby culturing the test microorganism.

[23] = test system: Candida albicans IAM 4905; assay: Antifungal activity, agar-dilution MIC, organism No. 29; conditions: Candida albicans, IAM4905; Organism No. 29, bouillon-agar; read-out: Minimum Inhibitory Concentration
Text: as §1

[24] = test system: Aspergillus niger IFO 6342; assay: Antifungal activity, agar-dilution MIC, organism No. 30; conditions: Aspergillus niger, IFO6342; Organism No. 30, bouillon-agar; read-out: Minimum Inhibitory Concentration
Text: as §1

[25] = test system: Enterobacter aerogenes ATCC 13048; assay: Antibacterial activity, agar-dilution MIC, organism No. 23; conditions: Klebsiella aerogenes, ATCC13048; Organism No. 23, bouillon-agar; read-out: Minimum Inhibitory Concentration
Text: as §1

| SMILES | MIC [1] [µg/mL] | MIC [2] [µg/mL] | MIC [3] [µg/mL] | MIC [4] [µg/mL] | MIC [5] [µg/mL] | MIC [6] [µg/mL] | MIC [7] [µg/mL] | MIC [8] [µg/mL] | MIC (Salmonella typhi 901) [µg/mL] | MIC [9] [µg/mL] | MIC [10] [µg/mL] | MIC [11] [µg/mL] | MIC [12] [µg/mL] | MIC [13] [µg/mL] | MIC [14] [µg/mL] | MIC [15] [µg/mL] | MIC [16] [µg/mL] | MIC [17] [µg/mL] | MIC (Proteus vulgaris OX-19) [µg/mL] | MIC (Proteus vulgaris HX-19) [µg/mL] | other results |
| --- | --- | --- | --- | --- | --- | --- | --- | --- | --- | --- | --- | --- | --- | --- | --- | --- | --- | --- | --- | --- | --- |
| [C-]#[N+]C12CC3(/C=C/C(=O)N4CCC[C@H]4C(=O)OCc4ccccc4)OC3C1O2 (stereo partly shown) [compound 32] | 200 (≈ 526 µM) | 200 (≈ 526 µM) | 200 (≈ 526 µM) | > 200 | > 200 | > 200 | > 200 | > 200 | > 200 | > 200 | > 200 | > 200 | > 200 | > 200 | > 200 | > 200 | > 200 | > 200 | > 200 | > 200 | MIC [18]: > 200 µg/mL; MIC (Enterobacter cloacae 963): > 200 µg/mL; MIC [19]: 1.56 µg/mL (≈ 4.1 µM); MIC [20]: 200 µg/mL (≈ 526 µM); MIC [21]: 200 µg/mL (≈ 526 µM); MIC [22]: > 100 µg/mL; MIC [23]: > 100 µg/mL; MIC [24]: > 100 µg/mL |
| [C-]#[N+]C12CC3(/C=C/C(=O)N4CCN(C)CC4)OC3C1O2 (stereo not shown) [compound 23] | 200 (≈ 726 µM) | > 200 | 200 (≈ 726 µM) | 50 (≈ 182 µM) | 50 (≈ 182 µM) | 50 (≈ 182 µM) | 200 (≈ 726 µM) | 50 (≈ 182 µM) | 12.5 (≈ 45.4 µM) | 25 (≈ 90.8 µM) | 50 (≈ 182 µM) | 25 (≈ 90.8 µM) | 200 (≈ 726 µM) | > 200 | > 200 | > 200 | 12.5 (≈ 45.4 µM) | > 200 | 25 (≈ 90.8 µM) | 25 (≈ 90.8 µM) | MIC [18]: > 200 µg/mL; MIC [25]: > 200 µg/mL; MIC (Enterobacter cloacae 963): 200 µg/mL (≈ 726 µM); MIC [19]: < 0.05 µg/mL; MIC [20]: 50 µg/mL (≈ 182 µM); MIC [21]: 100 µg/mL (≈ 363 µM); MIC [23]: 1.56 µg/mL (≈ 5.67 µM); MIC [24]: 3.13 µg/mL (≈ 11.4 µM) |
| [C-]#[N+]C12CC3(/C=C/C(=O)NC4C(=O)N5C(C(=O)OCC(=O)c6ccc(Br)cc6)=C(C)CSC45)OC3C1O2 (stereo not shown) [compound 34] | > 100 | > 100 | > 100 | > 100 | > 100 | > 100 | > 100 | > 100 | > 100 | > 100 | > 100 | > 100 | > 100 | > 100 | > 100 | > 100 | > 100 | > 100 | > 100 | 100 (≈ 171 µM) | MIC [18]: > 100 µg/mL; MIC [25]: > 100 µg/mL; MIC (Enterobacter cloacae 963): > 100 µg/mL; MIC [20]: > 100 µg/mL; MIC [21]: > 100 µg/mL; MIC [22]: > 100 µg/mL; MIC [23]: > 100 µg/mL; MIC [24]: > 100 µg/mL |
| [C-]#[N+]C12CC3(/C=C/C(=O)Nc4ccccc4)OC3C1O2 (stereo not shown) [Compound No. 36] | 0.39 (≈ 1.45 µM) | 0.78 (≈ 2.91 µM) | 0.39 (≈ 1.45 µM) | 1.56 (≈ 5.81 µM) | 12.5 (≈ 46.6 µM) | 6.25 (≈ 23.3 µM) | 0.39 (≈ 1.45 µM) | 12.5 (≈ 46.6 µM) | 3.13 (≈ 11.7 µM) | 0.39 (≈ 1.45 µM) | < 0.05 | 0.78 (≈ 2.91 µM) | 12.5 (≈ 46.6 µM) | > 200 | > 200 | > 200 | 0.39 (≈ 1.45 µM) | 12.5 (≈ 46.6 µM) | 0.78 (≈ 2.91 µM) | < 0.05 | MIC [18]: 3.13 µg/mL (≈ 11.7 µM); MIC [25]: > 200 µg/mL; MIC (Enterobacter cloacae 963): 200 µg/mL (≈ 746 µM); MIC [19]: < 0.05 µg/mL; MIC [20]: 0.2 µg/mL (≈ 0.746 µM); MIC [22]: < 0.2 µg/mL; MIC [23]: 0.39 µg/mL (≈ 1.45 µM); MIC [24]: 1.56 µg/mL (≈ 5.81 µM) |
